Biological target: T1, Ephrin type-B receptor 4 (Homo sapiens, UniProt P54760)
T1 sequence (P54760 whole entry): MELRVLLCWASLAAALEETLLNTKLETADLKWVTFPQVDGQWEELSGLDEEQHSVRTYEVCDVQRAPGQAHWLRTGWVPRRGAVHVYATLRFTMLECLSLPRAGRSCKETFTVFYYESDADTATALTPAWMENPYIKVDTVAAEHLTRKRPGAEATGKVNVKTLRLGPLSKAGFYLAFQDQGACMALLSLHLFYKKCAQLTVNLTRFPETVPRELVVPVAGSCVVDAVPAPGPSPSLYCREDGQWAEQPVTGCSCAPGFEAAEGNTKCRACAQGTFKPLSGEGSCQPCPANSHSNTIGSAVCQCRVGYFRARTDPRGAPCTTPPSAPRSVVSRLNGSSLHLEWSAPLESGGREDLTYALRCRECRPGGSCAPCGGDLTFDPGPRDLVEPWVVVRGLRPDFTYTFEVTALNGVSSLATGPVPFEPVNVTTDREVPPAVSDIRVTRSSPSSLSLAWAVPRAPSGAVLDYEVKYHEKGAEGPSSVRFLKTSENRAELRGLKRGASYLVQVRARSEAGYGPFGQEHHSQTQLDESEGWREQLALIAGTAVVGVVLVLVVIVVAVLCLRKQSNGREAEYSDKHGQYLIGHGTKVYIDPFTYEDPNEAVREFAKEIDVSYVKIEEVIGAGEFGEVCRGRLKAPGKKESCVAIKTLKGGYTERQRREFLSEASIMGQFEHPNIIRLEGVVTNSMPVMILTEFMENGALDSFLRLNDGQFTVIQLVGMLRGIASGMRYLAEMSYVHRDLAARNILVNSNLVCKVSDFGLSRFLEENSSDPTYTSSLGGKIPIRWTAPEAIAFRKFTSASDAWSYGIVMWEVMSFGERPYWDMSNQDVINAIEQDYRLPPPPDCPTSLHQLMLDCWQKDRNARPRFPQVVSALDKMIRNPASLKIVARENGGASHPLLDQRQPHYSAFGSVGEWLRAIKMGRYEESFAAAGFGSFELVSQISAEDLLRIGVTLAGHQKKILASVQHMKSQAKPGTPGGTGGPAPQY
Test: Inhibition of EphB4

IC50 [µM]	SMILES
1.33	Clc1cccc(Nc2nccc(Nc3c(Cl)ccc4c3OCO4)n2)c1
1.25	N#Cc1ccc(Nc2nccc(Nc3c(Cl)ccc4c3OCO4)n2)cc1
7.85	Clc1ccc2c(c1Nc1ccnc(Nc3ccccc3N3CCOCC3)n1)OCO2
0.3	NS(=O)(=O)c1ccc(Nc2nccc(Nc3c(Cl)ccc4c3OCO4)n2)cc1
1.94	COc1ccc(Nc2nccc(Nc3c(Cl)ccc4c3OCO4)n2)cc1
2.54	COc1cc(Nc2cc(Nc3c(Cl)ccc4c3OCO4)ncn2)cc(OC)c1OC
35.5	NS(=O)(=O)c1ccccc1Nc1nccc(Nc2c(Cl)ccc3c2OCO3)n1
5	Fc1ccccc1Nc1nccc(Nc2c(Cl)ccc3c2OCO3)n1
3.88	COc1ccccc1Nc1nccc(Nc2c(Cl)ccc3c2OCO3)n1
20.5	N#Cc1ccccc1Nc1nccc(Nc2c(Cl)ccc3c2OCO3)n1
6	Clc1ccc(Nc2nccc(Nc3c(Cl)ccc4c3OCO4)n2)cc1

SMILES	IC50 [µM]
Fc1ccc(Nc2nccc(Nc3c(Cl)ccc4c3OCO4)n2)cc1	2.3

From ChEMBL document CHEMBL1145633, “Inhibitors of the tyrosine kinase EphB4. Part 1: Structure-based design and optimization of a series of 2,4-bis-anilinopyrimidines” (Bioorg Med Chem Lett, 2008)
